The source of these data is US20230364084A1, “METHODS FOR PREVENTING OR TREATING CONDITIONS RELATED TO PIKFYVE ACTIVITY” (The Regents of the University of Michigan, priority 2020, published 2023).

Experiment [1] has as its system B cell non-Hodgkin's lymphoma. As to conditions: cited from earlier work.
Experiment [2] concerns GFP-LC3-RFP-LC3ΔG-expressing Myc-CaP cells. The experiment in a line: autophagic flux detection in Myc-CaP cells. The following applies: 24 hours. Format: cell-based, mouse. As to the method: (§1) For autophagic flux detection, 10,000 cells were plated in 96-well plates and incubated with various compounds in complete medium for 24 hours. GFP and RFP fluorescence intensities were measured on a TECAN M1000 plate reader.

In a further experiment the test system is DU145 cells. The experiment in a line: cellular vacuolization morphology with autophagy inhibitors. The following applies: combination with ESK981, six hours. It is filed as cell-based, human.
The next experiment concerns metastatic CRPC (mCRPC). The following applies: men with metastatic CRPC; cited from earlier work.
The next experiment relates to PC3 and DU145 cells. Description: autophagic flux detection (GFP-LC3-RFP-LC3ΔG probe). Format: cell-based, human. As to conditions: PC3 or DU145 cells, 24 hours. As to the method: as §1
Experiment [3] has as its system lysosomes in VCaP, LNCaP, PC3 and DU145 cells. The experiment in a line: LysoTracker Green flow cytometry. It is filed as cell-based, human. The following applies: bafilomycin A1 100 nM with ESK981 300 nM, 24 hours. As to the method:
Cells were grown in 6-well plates and treated with various drugs. After 24 hours, cells were stained with LysoTracker® Green DND-26 (Invitrogen), and green fluorescence signal was analyzed by flow cytometry.
(In flow cytometry, cells or beads pass a laser one at a time.)

For another experiment, the system named is CXCL10 in VCaP cells. The experiment in a line: human CXCL10 ELISA of conditioned medium. As to conditions: VCaP cells, 24 hours. It is filed as cell-based. As to the method:
Conditioned medium was collected after 24 hours of drug incubation. ELISA was performed using a human CXCL10 ELISA kit (Cat No. KAC2361, ThermoFisher), or a mouse CXCL10 ELISA kit (Cat No. ab214563, Abcam) according to the manufacturer's instructions.
(In an ELISA, binding on a coated surface is turned into a signal by an enzyme label.)

A further experiment deals with advanced prostate cancer. The following applies: two phase III trials; cited from earlier work.
The subject of experiment [4] is prostate cancer cell lines (VCaP, LNCaP, 22RV1, LNCaP-AR, PC3, DU145). The experiment in a line: long-term survival assay (14 days, crystal violet). Format: cell-based, human. As to conditions: panel of prostate cancer cell lines, two weeks. On the procedure:
Single cell suspensions were seeded into 96-well plates at a density of 1,000-30,000 cells per well. Long-term survival was determined after 14 days of drug incubation. Viable cells were fixed with 4% formaldehyde and subsequently stained with 1% crystal violet. IC50 was calculated using GraphPad Prism.

Experiment [5] deals with DU145 prostate cancer cells. The experiment in a line: cell viability screen with a 167-compound tyrosine kinase inhibitor library. Format: cell-based, human. The following applies: 300 nM. On the procedure:
FIG. 1: ESK981 inhibits the growth of diverse preclinical models of prostate cancer and is associated with a unique vacuolization morphology. • (a) The percentage viabilities of DU145 cells treated with 300 nM ESK981 or 167 other tyrosine kinase inhibitors when compared to a vehicle control. The top five most inhibitory compounds, as well as cabozantinib and crizotinib (highlighted in orange), and their respective targets are listed in the table. ESK981 is highlighted in red. • (b) Morphological differences of nuclear-restricted RFP-expressing DU145 cells treated with 300 nM ESK981, crizotinib, or cabozantinib. • (c) A long-term survival assay was used to calculate the half-maximum inhibitory concentration (IC50) after two weeks of incubation with the serial dilutions of indicated drugs. (Top) Long-term survival assays of VCaP prostate cancer cells exposed to MTKIs. (Bottom) IC50 of ESK981, crizotinib, and cabozantinib in a panel of prostate cancer cell lines. • (d) ESK981 was effective against enzalutamide (Enza)-resistant cell lines. […] Long-term survival (two weeks) was assayed by absorbance of crystal violet at OD590. • (e) VCaP-RFP cells were cultured for three days in ultralow attachment plates to form 3D tumor spheroids prior to the indicated drug treatments. […] Fluorescence intensity of 3D spheroids was measured by IncuCyte ZOOM. • (f) Castration-resistant VCaP tumors were established subcutaneously in castrated SCID mice, and mice were randomized into three groups, which received vehicle, 30 mg/kg, or 60 mg/kg ESK981 by oral gavage once per day for the indicated dosing schedule. Tumor volumes were monitored by a digital caliper twice per week. Data were analyzed by unpaired t test and presented as mean±SEM. *p<0.05; **p<0.01. • (g) AR^+ prostate patient-derived xenograft (PDX) MDA-PCa-146-12 were implanted subcutaneously in non-castrated SCID mice, and mice were randomized into two groups receiving either once daily vehicle or 30 mg/kg ESK981 for five days each week. […] Tumor volumes were monitored twice per week. […]

The subject of experiment [6] is LC3-II in prostate cancer cell lines. The experiment in a line: LC3 lipidation western blot. Format: cell-based, human. As to conditions: VCaP cells, 24 hours. As to the method: Cell lysates were harvested in Pierce RIPA Lysis buffer (Thermo Scientific) containing protease inhibitor cocktail tablets (Roche) and phosphatase inhibitor cocktail (Millipore). Protein concentration was measured using the DC Protein Assay (Bio-Rad) to ensure an equal amount of protein was loaded onto a gel. The denatured lysates were separated on NuPage 4-12% Bis-Tris Midi Protein gels (Novex) and transferred to 0.45-μm PVDF transfer membrane (Immobilon) using a TransBlot Turbo dry transfer machine (Bio-Rad). The membrane was incubated in blocking buffer (5% non-fat dry milk, Tris-buffered saline with 0.1% Tween 20) for 1 hour at room temperature. The membrane was then incubated with the listed antibodies for 1 hour at room temperature, followed by overnight incubation at 4° C. Chemiluminescent detection using ECL Prime (Amersham) and HyBlot CL autoradiography film (Denville Scientific) was used to visualize the blots. Antibodies used in the immunoblotting assays were against ATG5 (Cat No. 12994S, Cell Signaling Technology), ATG7 (Cat No. 8558S, Cell Signaling Technology), ULK1 (Cat No. 8054S, Cell Signaling Technology), Beclin1 (Cat No. 4122S, Cell Signaling Technology), FIP200 (Cat No. 12436S, Cell Signaling Technology), LC3A/B (Cat No. 127415, Cell Signaling Technology), PIKfyve (Cat No. AF7885, R&D Systems), and GAPDH (Cat No. 3683S, Cell Signaling Technology).
A general note: In western blotting, separated proteins are transferred to a membrane and probed.

For the compound `Cc1cccc(/C=N/Nc2cc(N3CCOCC3)nc(OCCc3ccccn3)n2)c1` [apilimod], in experiment [1], the tumor inhibition result is reported as “tumor inhibitory effects”. Regarding `CCN(CC)CCCC(C)Nc1ccnc2cc(Cl)ccc12` (centres unmarked) [chloroquine], the autophagic flux result in experiment [2] is on record as “inhibited”. In addition, the “effect on the cellular vacuolization effects of ESK981” value (shortened to “effect … of ESK981”) in the experiment with DU145 cells is recorded as “completely blocked”.

With `Cn1cnc(N)c2ncnc1-2` [3-methyladenine], in the experiment on DU145 cells, the “effect … of ESK981” value is “partially negated”. Take pembrolizumab: PD-1 inhibitor: the response rates in the experiment with metastatic CRPC (mCRPC) is reported as 3-5%. As to `CO/C1=C\C(C)=C\[C@@H](C)[C@@H](O)[C@@H](C)C/C(C)=C/C=C/[C@H](OC)[C@@H]([C@@H](C)[C@@H](O)[C@H](C)[C@@]2(O)C[C@@H](O)[C@H](C)[C@@H](C(C)C)O2)OC1=O` [bafilomycin A1], the autophagic flux result in experiment [2] is “inhibited”. For the same compound, the “effect … of ESK981” value in the experiment on DU145 cells was “completely blocked”. In addition, the “autophagic flux (GFP/RFP ratio)” value in the experiment on PC3 and DU145 cells is on record as “low autophagic flux”. In experiment [3], the “effect on the ESK981-increased lysosome quantity” value was “readily neutralized”. Turning to `Nc1ccn([C@@H]2O[C@H](CO)[C@@H](O)C2(F)F)c(=O)n1` [gemcitabine], the “CXCL10 induction / secretion” value in the experiment with CXCL10 in VCaP cells was “robust CXCL10 inducer”. In the case of ipilimumab: CTLA4 inhibitor, the overall survival entry in the experiment on advanced prostate cancer is “failed to improve overall survival”. On to `CCC(=O)N1CCN(c2ccc(-n3c(=O)ccc4cnc5ccc(-c6cnc7ccccc7c6)cc5c43)cc2C(F)(F)F)CC1` [Torin1], for which the “autophagic flux (GFP/RFP ratio)” value in the experiment with PC3 and DU145 cells is recorded as “decreased the GFP/RFP ratio”. Further, the “CXCL10 induction / secretion” value in the experiment with CXCL10 in VCaP cells is “marginally increased CXCL10 secretion, but only at higher concentrations”. Take `C[C@@H](Oc1cc(-c2cnn(C3CCNCC3)c2)cnc1N)c1c(Cl)ccc(F)c1Cl` [crizotinib, reference compound]: the IC50 in words result in [4] is recorded as “micromolar”. Besides, the “growth inhibition (cell viability)” value in experiment [5] is reported as “no such growth inhibitory effects”. The “induction of LC3-II” value in [6] (300 nM) is “did not induce an increase in LC3-II”; in [6] (1 μM) it was “only weakly induced an increase in LC3-II”.
